# Results reported in patent US11844801B2, “Oral compositions of MK2 pathway inhibitor for treatment of immune conditions” (priority 2020, dated 2023).
# Assays:
# Design in all cases: species or system human
# TNF-α = experiment: Ex vivo LPS-stimulated TNF-α in blood of dosed healthy subjects, PK/PD inhibitory Emax model
# Procedure: (§1) Blood samples of 10 mL were collected for PD analysis. For the SAD cohorts, blood was collected before dosing and 1, 12, and 24 hours after dosing. For the MAD cohorts, on day 1 blood was collected before the morning dose and 4 and 12 hours after the morning dose (prior to the evening dose); on day 7, blood was collected before the morning dose and 4 and 12 hours after the morning dose.
# (§2) Additional details of the assays for analyzing p-HSP27 and cytokines are included in the Supplementary Information.
# (§3) Pharmacodynamics. PD data analysis was conducted using Microsoft Excel 2010 (Microsoft, Redmond, WA), Meso Scale Discovery Workbench® analysis software (Rockville, MD), and Phoenix WinNonlin, version 8.2.
# (§4) Sample Preparation for Cytokine Analysis. For each sample, 180 μL aliquots were transferred into 7 wells of a round bottom 96 well tissue culture polystyrene low evaporation plate. […] No outer wells on the plates were used and all wells surrounding the samples contained 200 μL of phosphate buffered saline.
# (§5) DMSO was added to all wells in groups ‘A’ and ‘C’ to a final concentration of 0.1% ([…] of a 2% DMSO solution in DMEM containing 10% FBS and 1% penicillin/streptomycin/glutamine). […] Samples were mixed gently for 30 seconds on a plate shaker using pin tools, then placed in an incubator at 37° C./5% CO2 for 1 hour.
# (§6) Samples in groups ‘A’ and ‘B’ were stimulated with lipopolysaccharide at a final concentration of 100 ng/mL. A stock solution of lipopolysaccharide at 1 mg/mL in DMEM containing 10% FBS and 1% penicillin/streptomycin was diluted to […] in DMEM containing 10% FBS and 1% penicillin/streptomycin, and […] of this working solution was added per well of blood for all samples in groups ‘A’ and ‘B’. […] of DMEM containing 10% FBS only was added per well of blood for all samples in group ‘C’ (unstimulated samples). Samples were mixed gently for 30 seconds on a plate shaker using pin tools, then placed in an incubator at 37° C./5% CO2 for 5 hours.
# (§7) Following the incubation, the plates were removed from the incubator and sealed with adhesive clear plate seals. The plates were then centrifuged for 10 minutes at 1800×g at room temperature. […] of plasma was removed from each well and transferred to a 96-well polypropylene round bottom master plate, which was then sealed and frozen at −80° C. until all samples from the respective cohort were generated. Once all samples from a given cohort were generated, the samples were analyzed for cytokine (TNF-α, IL-1b, IL-6, and IL-8) production using Meso Scale Discovery Technology.
# (§8) Analysis of Cytokine Levels Using Meso Scale Discovery Technology. All lipopolysaccharide plasma samples were analyzed for cytokine production with a V-Plex Human Proinflammatory Panel II (4-Plex) Kit from Meso Scale Discovery (Rockville, MD). The master plates containing the plasma samples were thawed on ice, and a daughter plate consisting of a 25-fold dilution of each plasma sample (3 μL of plasma plus 72 μL of Meso Scale Discovery Diluent 2) was generated for each master plate. The diluted plasma samples from the daughter plates were used in the cytokine analysis. The Meso Scale Discovery 4-plex plates were washed 3 times with 150 μL/well of wash buffer (1×KPL phosphate buffered saline with Tween 20 from SeraCare [Milford, MA]). Prepared calibrators and the samples from the daughter plates were added to the washed Meso Scale Discovery 4-plex plates at 50 μL/well. The 4-plex plates were sealed and shaken overnight at 4° C.
# (§9) After the overnight incubation, the samples were removed by decanting. The 4-plex plates were then washed 3 times with 150 μL/well of wash buffer. […]
# [1] = test system: p-HSP27 (phosphorylated heat shock protein 27); experiment: Ex vivo LPS-stimulated p-HSP27 in blood of dosed healthy subjects, PK/PD inhibitory Emax model
# Procedure: as §1, §2, §3
# Sample Preparation for p-HSP27 Analysis. […] Treatment groups consisted of 3 tubes for group ‘A’, 2 tubes for group ‘B’, and 1 tube for group ‘C’.
# Dimethyl sulfoxide (DMSO) was added to all tubes in groups ‘A’ and ‘C’ to a final concentration of 0.1% (10 μL per mL of a 10% DMSO solution in Dulbecco's Modified Eagle Medium (DMEM) containing 10% fetal bovine serum (FBS) and 1% penicillin/streptomycin/glutamine). Samples were then rocked gently at room temperature. […] Samples were then rocked gently at room temperature for a minimum of 1 hour.
# Samples in groups ‘A’ and ‘B’ were stimulated with lipopolysaccharide at a final concentration of 100 ng/mL for 22 minutes at room temperature. A stock solution of lipopolysaccharide at 1 mg/mL in DMEM containing 10% FBS and 1% penicillin/streptomycin was diluted to 10 μg/mL in DMEM containing 10% FBS and 1% penicillin/streptomycin, and 10 μL of this working solution was added per mL of blood. Samples were gently rocked at room temperature for 11 minutes, then placed upright for 11 minutes prior to peripheral blood mononuclear cells (PBMC) isolation.
# Ten μL of DMEM containing 10% FBS only was added per mL of blood in group ‘C’ for all patient samples (unstimulated samples). Samples were gently rocked at room temperature for 11 minutes, then placed upright for 11 minutes prior to PBMC isolation.
# Upon completion of treatment (lipopolysaccharide stimulated or unstimulated) for each sample, PBMCs were isolated from each human whole blood aliquot in all treatment groups. One mL of blood from each sample was gently layered onto 0.75 mL of Histopaque-1077 in a 2-mL microcentrifuge tube. Histopaque-1077 was maintained at room temperature. The samples were centrifuged for 2 minutes at 16,000×g in an Eppendorf microcentrifuge. The interface and upper layers were removed and added to tubes containing 1 mL cold Dulbecco's phosphate-buffered saline (DPBS). These samples were then centrifuged for 30 seconds at 16,000×g in an Eppendorf microcentrifuge to pellet the cells. The buffer supernatant was removed by aspiration and the pellets were re-suspended in 1 mL of cold DPBS. The pellets from each sample were then re-pelleted, as described above. […]
# Analysis of p-HSP27 (Ser78) Levels Using Luminex Technology. The lysates were analyzed for HSP27 phosphorylation with a custom Milliplex® MAP Human Phospho-HSP27(Ser78) Cell Signaling Magnetic Bead Kit from Millipore Sigma (Burlington, MA) using the kit-prescribed immunoassay protocol for a 96-well solid plate and hand-held magnetic separation block. […]
# IL-6 = experiment: Ex vivo LPS-stimulated IL-6 in blood of dosed healthy subjects, PK/PD inhibitory Emax model
# Procedure: as §1, §2, §3, §4, §5, §6, §7, §8, §9
# [2] = Homo sapiens, calculated from IC50, combined SAD and MAD data, read-out: IC80, plasma concentration at 80% of maximal inhibition
# [3] = Homo sapiens, inhibitory Emax model, combined SAD and MAD data, read-out: IC50, plasma concentration at half maximal inhibition
# [4] = calculated from IC50, combined SAD and MAD data
compound,measurement,setting,value
"Cc1cnc(-c2ccnc(C(C)(C)O)n2)cc1-n1c(C)cc(OCc2ncc(F)cc2F)c(Cl)c1=O (single isomer, unassigned) [ATI-450, 3-chloro-4-((3,5-difluoropyridin-2-yl)methoxy)-2′-(2-(2-hydroxypropan-2-yl)pyrimidin-4-yl)-5′,6-dimethyl-2H-[1,4′-bipyridin]-2-one]",TNF-α inhibition versus baseline,TNF-α; 50 mg BID MAD cohort,up to 92.7%
same,Cmax (Multiple of IC80),"TNF-α; 50 mg BID, day 7",3.5x
same,Ctrough (Multiple of IC80),"TNF-α; 50 mg BID, day 7",1.4x
same,IC80,TNF-α; [2],0.0626 µg/mL
same,IC50,TNF-α; [3],0.0156 µg/mL
same,"IC80, plasma concentration at 80% of maximal inhibition",TNF-α; [4],62.6 ng/mL
same,Cmax (Multiple of IC80),"[1]; 50 mg BID, day 7",6.0x
same,Ctrough (Multiple of IC80),"[1]; 50 mg BID, day 7",2.4x
same,IC80,[1]; [2],0.0367 µg/mL
same,IC50,[1]; [3],9.2 ng/mL
same,"IC80, plasma concentration at 80% of maximal inhibition",[1]; [4],36.7 ng/mL
same,Cmax (Multiple of IC80),"IL-6; 50 mg BID, day 7",0.3x
same,Ctrough (Multiple of IC80),"IL-6; 50 mg BID, day 7",0.1x
same,inhibition at 50 mg,"IL-6; Homo sapiens, 50 mg BID, part of the dosing interval",> 50%
same,IC80,IL-6; [2],0.748 µg/mL
same,IC50,IL-6; [3],0.187 µg/mL
same,"IC80, plasma concentration at 80% of maximal inhibition",IL-6; [4],747.8 ng/mL
